Assay results from patent US8758802B2, “Methods of inhibiting cataracts and presbyopia” (University of Massachusetts, priority 2009, dated 2014).
“Also recorded” adds a separate entry of the source.

Test system: βL-crystallin
Experiment: Dynamic light scattering of βL-crystallin solutions with added agents (aggregate size, hydrodynamic radius)
Type: biochemical, bovine
Settings: for Effect on βL-crystallin aggregate size / de-clumping: SDS 0.1 mg/mL (below CMC), 0.2 mg/mL βL-crystallin in water, sulfate
Description: βL-crystallin (C5163 Sigma-Aldrich) and α-crystallin (C4163 Sigma-Aldrich) from a bovine eye lens were stored in a biological freezer. The four stock solutions prepared for these experiments were 2 mg/mL βL-crystallin in water, 2 mg/mL βL-crystallin in PBS, 2 mg/mL α-crystallin in water, and 0.15M NaCl in water. All water used in these experiments was filtered and deionized. A stock solution of 2 mg/mL βL-crystallin in water was prepared by mixing 10 mg of βL-crystallin with 5 mL water in a decontaminated 20 mL scintillation vial. A similar procedure was followed to prepare 2 mg/mL α-crystallin in water and 2 mg/mL βL-crystallin in PBS.
A dilution of these stock solutions was used to create 2 mL samples of 0.2 mg/mL βL-crystallin in water, 0.2 mg/mL α-crystallin in water, 0.2 mg/mL βL-crystallin, 0.15M NaCl in water, 0.2 mg/mL βL-crystallin, 0.6 mg/mL α-crystallin in water, and 0.2 mg/mL βL-crystallin in PBS.
An ALV instrument with an Ar laser (λ=514.5 nm) was used to collect DLS data from 35°-65° in 5° increments and from 70°-90° in 10° increments. An ALV5000 correlator was used to analyze the data. Glass DLS tubes (4 mL) were sonicated in an extremely dilute solution of Micro-90 for 1 hour and then rinsed with filtered deionized water eight times followed by acetone eight times. The concentration of crystallins in the lens is typically very high. However, dilute solutions of the crystallins are required for DLS characterization, as set forth by limitations imposed by the Zimm regime.
The hydrodynamic radius, Rh, can be determined using the Stokes-Einstein equation,
As mentioned earlier, α-crystallin acts as a chaperone protein in the lens as it either diminishes or inhibits aggregation. In order to determine the impact of α-crystallin and its chaperone abilities on βL-crystallin, a solution of 0.2 mg/mL βL-crystallin, 0.6 mg/mL α-crystallin in water at 23° C. was prepared for DLS. […] The addition of the chaperone was thereby seen to remove the aggregate.
In order to determine if the aggregation of the crystallins is electrostatic in nature, dynamic light scattering was accomplished on 0.2 mg/mL βL-crystallin in a 0.15M NaCl water solution, (FIG. 8).
The effect of SDS, sodium dodecyl sulfate (purchased from Sigma Aldrich) a […] surfactant on βL-crystallin deaggregation was studied as in Example 4. The CMC for SDS is 2.36 mg/ml, so the SDS concentration was maintained below that value.

[1] = 0.2 mg/mL βL-crystallin, 0.15M NaCl in water

Row | Structure (SMILES) | Effect on βL-crystallin aggregate size / de-clumping (listed as sodium dodecyl sulfate) | Effect on βL-crystallin aggregate size / de-clumping | Rh of βL-crystallin aggregate (slow mode) after addition of the salt (0.2 mg/mL βL-crystallin in 0.15M NaCl water solution, without salt 230 nm) | Effect of salt on fast mode (unaggregated βL-crystallin) [1] | Reduction in aggregate Rh upon addition of NaCl [1] | Effect on βL-crystallin aggregate size (about 0.15 M NaCl)
1 | CCCCCCCCCCCCOS(=O)(=O)[O-].[Na+] [SDS, sodium dodecyl sulfate, reference compound] | no effect; also recorded: does not reduce βL-crystallin aggregate sizes | did not stimulate de-clumping |  |  |  | 
2 | [Cl-].[Na+] [NaCl] |  |  | 120 nm | not significantly affected | two-fold reduction | decreases βL-crystallin aggregate size
